Measured values as given in patent publication US9962369B2, “Methods and compositions for transdermal delivery” (SPRAYABLE HOLDINGS, INC., priority 2014, dated 2018).

Experiment: Transdermal delivery of melatonin: plasma level of melatonin after applying composition to skin of a subject
Conditions: human, plasma, topical, Plasma level of melatonin; for concentration at 1 h: 1 hr after transdermal administration; for concentration at 2 h: 2 hr after transdermal administration; for concentration at 4 h: 4 hr after transdermal administration; for concentration at 8 h: 8 hr after transdermal administration; for concentration at 0 h: 0 hr after transdermal administration
[1] = 3 mg, salt of tryptophan isopropyl ester, A− = Cl^−, 247.52 mM, 0.30 mL applied
[2] = 3 mg, salt of tryptophan isopropyl ester, A− = F^−, 262.85 mM, 0.30 mL applied
[3] = 3 mg, salt of tryptophan isopropyl ester, A− = I^−, 187.04 mM, 0.30 mL applied
[4] = 3 mg, salt of tryptophan isopropyl ester, A− = Lactate ion, 208.11 mM, 0.30 mL applied
[5] = 0.3 mL of 1% melatonin in water, Tryptophan isopropyl ester hydrochloride 247.52 mM, 0.3 mL applied to skin
[6] = 0.3 mL of 1% melatonin in water, salt of tyrosine isopropyl ester, A− = Benzoate ion, 202.65 mM, 0.30 mL applied
[7] = 0.3 mL of 1% melatonin in water, salt of tyrosine isopropyl ester, A− = Lactate ion, 221.97 mM, 0.30 mL applied
[8] = 2 mL of […] melatonin suspension in water, Table 21 control, A− N/A, helper esters 0 mM, 2.0 mL applied
[9] = 2 mL of […] melatonin suspension, Helper esters: None (0 mM), 2.0 mL applied to skin
[10] = 2-(Dibutylamino)ethyl 2-acetoxybenzoate hydrochloride 188.23 mM, 0.375 mL applied to skin
[11] = 2-(Diethylamino)ethyl 2-acetoxybenzoate hydrochloride 221.69 mM, 0.375 mL applied to skin
[12] = 3-(Diethylamino)propyl 2-acetoxybenzoate hydrochloride 212.24 mM, 0.375 mL applied to skin
[13] = 6-(Dimethylamino)hexyl 2-acetoxybenzoate hydrochloride 203.56 mM, 0.375 mL applied to skin
[14] = Proline hexyl ester hydrochloride 296.94 mM, 0.60 mL applied to skin
[15] = Proline isopropyl ester hydrochloride 361.41 mM, 0.60 mL applied to skin
[16] = Proline methyl ester hydrochloride 422.66 mM, 0.60 mL applied to skin
[17] = salt of tryptophan isopropyl ester, A− = Lactate ion, 208.11 mM, 0.30 mL applied
[18] = salt of tyrosine isopropyl ester, A− = AcO^−, 245.0 mM, 0.30 mL applied
[19] = salt of tyrosine isopropyl ester, A− = Benzoate ion, 202.65 mM, 0.30 mL applied
[20] = salt of tyrosine isopropyl ester, A− = Br^−, 230.16 mM, 0.30 mL applied
[21] = salt of tyrosine isopropyl ester, A− = Citrate ion, 168.49 mM, 0.30 mL applied
[22] = salt of tyrosine isopropyl ester, A− = Cl^−, 269.51 mM, 0.30 mL applied
[23] = salt of tyrosine isopropyl ester, A− = F^−, 287.91 mM, 0.30 mL applied
[24] = salt of tyrosine isopropyl ester, A− = I^−, 199.43 mM, 0.30 mL applied

## COc1ccc2[nH]cc(CCNC(C)=O)c2c1 [Melatonin]
[1]
  concentration at 1 h: 2.5 ng/mL
  concentration at 2 h: 2.8 ng/mL
  concentration at 4 h: 2.7 ng/mL
  concentration at 8 h: 2.5 ng/mL
[2]
  concentration at 0 h: 0 ng/mL
  concentration at 1 h: 2.6 ng/mL
  concentration at 2 h: 2.8 ng/mL
  concentration at 4 h: 2.9 ng/mL
  concentration at 8 h: 2.6 ng/mL
[3]
  concentration at 0 h: 0 ng/mL
  concentration at 1 h: 2.3 ng/mL
  concentration at 2 h: 2.3 ng/mL
  concentration at 4 h: 2.2 ng/mL
  concentration at 8 h: 2.1 ng/mL
[4]
  concentration at 0 h: 0 ng/mL
  concentration at 1 h: 1.9 ng/mL
[5]
  concentration at 0 h: 0 ng/mL
  concentration at 1 h: 2.5 ng/mL
[6]
  concentration at 2 h: 2 ng/mL
  concentration at 4 h: 1.8 ng/mL
  concentration at 8 h: 1.7 ng/mL
[7]
  concentration at 0 h: 0 ng/mL
  concentration at 1 h: 1.7 ng/mL
  concentration at 2 h: 1.8 ng/mL
  concentration at 4 h: 2 ng/mL
  concentration at 8 h: 1.6 ng/mL
[8]
  concentration at 0 h: 0 ng/mL
  concentration at 1 h: 0.1 ng/mL
  concentration at 2 h: 0.1 ng/mL
  concentration at 4 h: 0.1 ng/mL
  concentration at 8 h: 0.1 ng/mL
[9]
  concentration at 4 h: 0.1 ng/mL
  concentration at 8 h: 0.1 ng/mL
[10]
  concentration at 0 h: 0 ng/mL
  concentration at 1 h: 1.6 ng/mL
  concentration at 2 h: 1.9 ng/mL
  concentration at 4 h: 1.8 ng/mL
  concentration at 8 h: 1.6 ng/mL
[11]
  concentration at 0 h: 0 ng/mL
  concentration at 1 h: 2.3 ng/mL
  concentration at 2 h: 2.6 ng/mL
  concentration at 4 h: 2.7 ng/mL
  concentration at 8 h: 2.4 ng/mL
[12]
  concentration at 0 h: 0 ng/mL
  concentration at 1 h: 2.1 ng/mL
  concentration at 2 h: 2.2 ng/mL
  concentration at 4 h: 2.3 ng/mL
  concentration at 8 h: 2.1 ng/mL
[13]
  concentration at 0 h: 0 ng/mL
  concentration at 1 h: 1.7 ng/mL
  concentration at 2 h: 2.1 ng/mL
  concentration at 4 h: 2.1 ng/mL
  concentration at 8 h: 1.9 ng/mL
[14]
  concentration at 0 h: 0 ng/mL
  concentration at 1 h: 1.1 ng/mL
  concentration at 2 h: 1.2 ng/mL
  concentration at 4 h: 1.3 ng/mL
  concentration at 8 h: 1.2 ng/mL
[15]
  concentration at 0 h: 0 ng/mL
  concentration at 1 h: 1.4 ng/mL
  concentration at 2 h: 1.4 ng/mL
  concentration at 4 h: 1.5 ng/mL
  concentration at 8 h: 1.4 ng/mL
[16]
  concentration at 0 h: 0 ng/mL
  concentration at 1 h: 1.2 ng/mL
  concentration at 2 h: 1.4 ng/mL
  concentration at 4 h: 1.3 ng/mL
  concentration at 8 h: 1.3 ng/mL
[17]
  concentration at 2 h: 2 ng/mL
  concentration at 4 h: 1.9 ng/mL
  concentration at 8 h: 1.8 ng/mL
[18]
  concentration at 0 h: 0 ng/mL
  concentration at 1 h: 1.8 ng/mL
  concentration at 2 h: 2 ng/mL
  concentration at 4 h: 1.9 ng/mL
  concentration at 8 h: 21.8 ng/mL
[19]
  concentration at 0 h: 0 ng/mL
  concentration at 1 h: 1.6 ng/mL
[20]
  concentration at 0 h: 0 ng/mL
  concentration at 1 h: 2.3 ng/mL
  concentration at 2 h: 2.7 ng/mL
  concentration at 4 h: 2.7 ng/mL
  concentration at 8 h: 2.6 ng/mL
[21]
  concentration at 0 h: 0 ng/mL
  concentration at 1 h: 2 ng/mL
  concentration at 2 h: 2.3 ng/mL
  concentration at 4 h: 2.2 ng/mL
  concentration at 8 h: 2 ng/mL
[22]
  concentration at 0 h: 0 ng/mL
  concentration at 1 h: 2.1 ng/mL
  concentration at 2 h: 2.9 ng/mL
  concentration at 4 h: 2.7 ng/mL
  concentration at 8 h: 2.8 ng/mL
[23]
  concentration at 0 h: 0 ng/mL
  concentration at 1 h: 2.2 ng/mL
  concentration at 2 h: 2.8 ng/mL
  concentration at 4 h: 2.8 ng/mL
  concentration at 8 h: 2.5 ng/mL
[24]
  concentration at 0 h: 0 ng/mL
  concentration at 1 h: 2.1 ng/mL
  concentration at 2 h: 2.3 ng/mL
  concentration at 4 h: 2.3 ng/mL
  concentration at 8 h: 2.1 ng/mL
